Tests used:
[1] = Plasma sCT Cmax in Beagle dogs after oral tablet (ELISA); type: in vivo; conditions: for Cmax: Beagle, dog, plasma, po, 1.7 mg, oral tablet 1.7 mg sCT
Description: Following application of the indicated amounts of HPMC to the indicated weight gain (in those examples utilizing the undercoat), the tablets were then sealed with an enteric coat made of Eudragit L30D-55 to the indicated further weight gain. Beagle dogs were given a tablet of the indicated combination of undercoat-enteric coat and aliquots of blood were taken at 15 minute intervals for 4 hours. Plasma was separated from the blood samples and analyzed for sCT by ELISA.

[2] = cited from earlier work

Cmax ([1]; HPMC undercoat 0%, L30D-55 enteric coat 4% tablet weight gain): 0.07 ng/mL | Cmax ([1]; HPMC undercoat 0%, L30D-55 enteric coat 7% tablet weight gain): 0.121 ng/mL | Cmax ([1]; HPMC undercoat 3%, L30D-55 enteric coat 4% tablet weight gain): 0.142 ng/mL | Cmax ([1]; HPMC undercoat 3%, L30D-55 enteric coat 7% tablet weight gain): 0.378 ng/mL | Cmax ([1]; HPMC undercoat 6%, L30D-55 enteric coat 4% tablet weight gain): 0.667 ng/mL | Cmax ([1]; HPMC undercoat 6%, L30D-55 enteric coat 7% tablet weight gain): 0.51 ng/mL | increase of sCT Cmax when amount of enteric coat was increased nearly 1.75 fold ([1]; absence of an undercoat): 1.7 fold | increase of sCT Cmax when an HPMC undercoat was included ([1]; one embodiment): more than 9 fold
Structure (SMILES): CC(C)C[C@H](NC(=O)[C@H](CCCCN)NC(=O)CNC(=O)[C@H](CC(C)C)NC(=O)[C@@H](NC(=O)[C@@H]1CSSC[C@H](N)C(=O)N[C@@H](CO)C(=O)N[C@@H](CC(N)=O)C(=O)N[C@@H](CC(C)C)C(=O)N[C@@H](CO)C(=O)N[C@@H]([C@@H](C)O)C(=O)N1)C(C)C)C(=O)N[C@@H](CO)C(=O)N[C@@H](CCC(N)=O)C(=O)N[C@@H](CCC(=O)O)C(=O)N[C@@H](CC(C)C)C(=O)N[C@@H](Cc1c[nH]cn1)C(=O)N[C@@H](CCCCN)C(=O)N[C@@H](CC(C)C)C(=O)N[C@@H](CCC(N)=O)C(=O)N[C@H](C(=O)N[C@@H](Cc1ccc(O)cc1)C(=O)N1CCC[C@H]1C(=O)N[C@@H](CCCNC(=N)N)C(=O)N[C@H](C(=O)N[C@@H](CC(N)=O)C(=O)N[C@H](C(=O)NCC(=O)N[C@@H](CO)C(=O)NCC(=O)N[C@H](C(=O)N1CCC[C@H]1C(N)=O)[C@@H](C)O)[C@@H](C)O)[C@@H](C)O)[C@@H](C)O [sCT, salmon calcitonin]
time after injection beyond which there are usually no detectable blood levels ([2]; injection at conventional dosages): more than two | peak levels at which some patients report side-effects such as flushing nausea ([2]; patients): ≥ 200 picograms per milliliter | half-life ([2]; subcutaneous administration in man): 20 to 40 min | peak serum concentration ([2]; subcutaneous administration, 100 International units): about 250 picograms per milliliter

From patent US9399017B2, “Peptide pharmaceutical for oral delivery” (Enteris BioPharma, Inc., priority 2007, dated 2016)
